This note sets out measurements from patent US11779576B2, “Method of treating C3 glomerulopathy” (CHEMOCENTRYX, INC., priority 2016, dated 2023).

For test [1], the system named is patient with progressive complement 3 glomerulonephritis (recurrent C3GN in a renal transplant). The test is described as follows: Study of compound 1 in a patient with progressive C3 glomerulonephritis: eGFR, proteinuria, clinical condition. The format is in vivo, human. The text has this:
Under the Special Needs program in the United Kingdom (which is similar to a compassionate use protocol in the US), a C3 glomerulonephritis patient received treatment with the orally administered complement inhibitor compound 1, following the protocol detailed below. The patient had refractory disease despite a kidney transplant and prior treatment with the broadly immunosuppressive drugs rituximab, cyclophosphamide, mycophenolate mofetil, tacrolimus, and steroids. Renal allograft biopsies were taken pre-dose, 2 and 7 months during therapy. The primary efficacy objective is to evaluate the efficacy of compound 1 based on change from baseline in eGFR (MDRD, Estimated Glomerular Filtration Rate) and proteinuria. The patient will have biopsy proven recurrent […] prior to start of dosing, and be deemed eligible based on the inclusion and exclusion criteria. Screening procedures will include recording of demographics, medical history, medication history, physical examination and vital signs, serum chemistry, hematology, urinalysis (including UPCR measurement), viral screening (if not performed within prior 12 weeks), and estimated glomerular filtration rate (eGFR) assessment based on serum creatinine. The baseline eGFR needs to be at least 25 mL/min/1.73 m^2 for study eligibility. On Day 1, the patient will start compound 1 treatment. Patients will take compound 1 30 mg orally twice daily for an initial period of 84 days. The patient will visit the study center on Days 1, 8, 15, 29, 57, and 85. The compound 1 dose will be taken in the morning optimally within one hour after breakfast and in the evening optimally within one hour after dinner. If the patient's clinical condition stabilizes or improves, and there are no adverse events preventing further treatment, the patient may be treated for another 84-day treatment cycle. The 84-day cycles may be repeated for a total of up to 4 cycles under this protocol. For the 84-day cycles after the first cycle, the patient will visit the study center every 4 weeks. There will be 4-week follow-up period after the patient stops the compound 1 treatment. Efficacy Assessments Include: • 1. First morning urinary PCR; • 2. eGFR by Modification of Diet in Renal Disease (MDRD) formula based on serum creatinine; • 3. Plasma and urine pharmacodynamic markers, e.g., MCP-1, C3a, C5a, properdin, and sC5b-9; • 4. Glomerular inflammation (e.g., crescents, inflammatory cell infiltrate, endocapillary proliferation) and C3 deposition in a follow-up renal biopsy sample; Pharmacokinetic Assessments

Test [2] relates to glomeruli of renal allograft of C3 glomerulonephritis patient. The test is described as follows: Renal allograft biopsies (histology, immunofluorescence, CD68 staining) pre-dose and at 2 and 7 months of compound 1 therapy. The following applies: for Endocapillary hypercellularity/total: pre-treatment 3/11; for CD68-positive cells/glomerulus: pre-treatment 11; for Immunoflourescence microscopy, IgM: pre-treatment trace; for glomerular inflammation: after treatment, PAS staining (FIG. 2). The format is in vivo, human. An excerpt:
Under the Special Needs program in the United Kingdom (which is similar to a compassionate use protocol in the US), a C3 glomerulonephritis patient received treatment with the orally administered complement inhibitor compound 1, following the protocol detailed below. The patient had refractory disease despite a kidney transplant and prior treatment with the broadly immunosuppressive drugs rituximab, cyclophosphamide, mycophenolate mofetil, tacrolimus, and steroids. Renal allograft biopsies were taken pre-dose, 2 and 7 months during therapy. […] Protocol of the Study Aim Efficacy Assessments Include: • 1. First morning urinary PCR; • 2. eGFR by Modification of Diet in Renal Disease (MDRD) formula based on serum creatinine; • 3. Plasma and urine pharmacodynamic markers, e.g., MCP-1, C3a, C5a, properdin, and sC5b-9; • 4. Glomerular inflammation (e.g., crescents, inflammatory cell infiltrate, endocapillary proliferation) and C3 deposition in a follow-up renal biopsy sample; Pharmacokinetic Assessments Renal biopsies will be analyzed by periodic acid—Schiff (PAS) staining, immunofluorescence staining for C3, C5b-9, and potentially other markers. Electron microscopy may also be performed.

Structures are written as SMILES. “Also recorded” adds a separate entry of the source.

For `Cc1ccc(NC(=O)[C@H]2CCCN(C(=O)c3c(C)cccc3F)[C@H]2c2ccc(NC3CCCC3)cc2)cc1C(F)(F)F` [compound 1], the “patient's condition in response to treatment” value in test [1] (C3 glomerulonephritis patient, refractory disease after kidney transplant, compound 1 30 mg orally twice daily) is listed as “improved”. The eGFR decline entry in test [1] (after 1 month of treatment (FIG. 1)) was “attenuated”; in test [1] (eGFR 83 mL/min/1.73 m^2 14 months prior, 46 mL/min/1.73 m^2 at start of treatment) it was “attenuated or stopped”. Also, the eGFR result in test [1] (during compound 1 treatment) was “stabilized”. Moreover, in test [1] (with compound 1 treatment, 30 mg orally twice daily), the Proteinuria drop entry is “approximately 80%”. Besides, the Endocapillary hypercellularity/total in test [2] (2 months of therapy) is recorded as 0/36; in test [2] (7 months of therapy) it was 0/14. Besides, the CD68-positive cells/glomerulus is listed as 2-3 cells/glomerulus in test [2] (2 months of therapy) and 1-2 cells/glomerulus in test [2] (7 months of therapy). Besides, the “Immunoflourescence microscopy, IgM” value in test [2] (2 months of therapy) and in test [2] (7 months of therapy) was “neg” throughout. The glomerular inflammation entry in test [2] was “reduction”; in test [2] (listed as Compound 1) it was “reduced”. Further, the glomerular endocapillary proliferation result in test [2] (on-treatment kidney biopsy compared to pre-treatment biopsy) was “clearance”. Further, in test [2] (on-treatment/repeat biopsies compared to pre-treatment, CD68 staining (FIG. 2)), the glomerular inflammatory macrophages result is listed as “marked decrease; also recorded: reduction”. In addition, in test [2] (repeat biopsies, PAS staining after treatment (FIG. 2)), the glomerular endocapillary hypercellularity entry was “resolution; also recorded: reduction”.
